The values below come from patent US10570121B2, “Substituted dihydroisoquinolinone compounds” (priority 2014, dated 2020).

Where two headings read alike, the source gives them in different places.

The target of one experiment is EZH2 Mutant Y641N (Homo sapiens (Human), UniProt Q15910, Y641N). The experiment is described as follows: EZH2 Mutant Y641N nucleosome assay. Conditions: PRC2 4-protein complex 6 nM, 1.5 μM SAM, HeLa oligonucleosomes. In kind it is biochemical. The protocol:
(§1) The genes for EZH2, EED, SUZ12, and RBBP4 proteins were cloned into pBacPAK9 vectors (Clontech). RBBP4 was FLAG tagged on the N-terminal end. The baculovirus expressions of these proteins were used to co-infect SF9 insect cells. Insect cell pellets were lysed in a buffer containing 25 mM Tris pH8.0, 300 mM NaCl, 0.5 mM TCEP, complete EDTA-free protease inhibitor (Roche), 0.1% NP-40. The supernatant from the lysate was incubated with FLAG® M2 antibody resin (Sigma). The resin was washed on the chromatography column and eluted with 0.2 mg/ml FLAG peptide. The elute was incubated with omnicleave nucleases (Epicentre Technologies) at 4° C. overnight, then concentrated and loaded onto a Superdex 200 (GE Healthcare) column. The Superdex 200 column was eluted with 25 mM Tris pH8.0, 150 mM NaCl, 0.5 mM TCEP. Fractions containing the PRC2 complex were pooled.
(§2) A. Compound preparation • 1.
(§3) B. Reagent preparation • 1. […] Dilute TCA to 20% in DI water
(§4) C. Enzyme reaction • 1. […] Some compounds were tested under high SAM conditions.
(§5) D. Data analysis • 1. IC50 values were determined by fitting the data to a 4-parameter IC50 equation using proprietary curve fitting software. • 2. For compounds tested under high SAM conditions, Ki^app values were obtained by fitting the dose response curve to a model for competitive inhibition using proprietary curve fitting software. Preparation of HeLa Oligonucleosomes: Reagents • Cell Pellet: 15 L HeLa S3 (Accelgen)+6 L HeLa S3 (in house) • Mnase (Worthington Biochemicals) Equipment • SW-28 Rotor • Dounce Homogenizer/B Pestle Buffers • Lysis: 20 mM Hepes pH 7.5, 0.25M Sucrose, 3 mM MgCl2, 0.5% Nonidet P-40, 0.5 mM TCEP, 1 Roche Protease Tablet • B: 20 mM Hepes pH7.5, 3 mM MgCl2, 0.5 mM EDTA, 0.5 mM TCEP, 1 Roche Protease Tablet • MSB: 20 mM Hepes pH7.5, 0.4 M NaCl, 1 mM EDTA, 5% v/v Glycerol, 0.5 mM TCEP, 0.2 mM PMSF • LSB: 20 mM Hepes pH7.5, 0.1M NaCl, 1 mM EDTA, 0.5 mM TCEP, 0.2 mM PMSF • NG: 20 mM Hepes pH7.5, 1 mM EDTA, 0.4 m NaCl, 0.2 mM PMSF, 0.5 mM TCEP • Storage: 20 mM Hepes pH7.5, 1 mM EDTA, 10% Glycerol, 0.2 mM PMSF, 0.5 mM TCEP Protocol

Another experiment addresses WT EZH2 (Homo sapiens (Human), UniProt Q15910). The experiment is described as follows: WT EZH2 nucleosome assay (10X SAM, high SAM conditions). Format: biochemical. Conditions: 15 uM SAM, Ki app from competitive inhibition fit. The protocol:
as §1, §2, §3, §4, §5

Where [1] appears, read: read-out: EZH2 Mutant Y641N Nucleosome assay IC50.
Where [2] appears, read: read-out: WT EZH2 Nucleosome assay (10X SAM) Ki.
The mark [3] stands for this setting: EZH2 Mutant Y641N Nucleosome assay IC50 (μM).
The mark [4] stands for this setting: WT EZH2 Nucleosome assay (10X SAM) Ki (μM).

Sequence of EZH2 Mutant Y641N (Q15910 whole entry Y641N, looked up): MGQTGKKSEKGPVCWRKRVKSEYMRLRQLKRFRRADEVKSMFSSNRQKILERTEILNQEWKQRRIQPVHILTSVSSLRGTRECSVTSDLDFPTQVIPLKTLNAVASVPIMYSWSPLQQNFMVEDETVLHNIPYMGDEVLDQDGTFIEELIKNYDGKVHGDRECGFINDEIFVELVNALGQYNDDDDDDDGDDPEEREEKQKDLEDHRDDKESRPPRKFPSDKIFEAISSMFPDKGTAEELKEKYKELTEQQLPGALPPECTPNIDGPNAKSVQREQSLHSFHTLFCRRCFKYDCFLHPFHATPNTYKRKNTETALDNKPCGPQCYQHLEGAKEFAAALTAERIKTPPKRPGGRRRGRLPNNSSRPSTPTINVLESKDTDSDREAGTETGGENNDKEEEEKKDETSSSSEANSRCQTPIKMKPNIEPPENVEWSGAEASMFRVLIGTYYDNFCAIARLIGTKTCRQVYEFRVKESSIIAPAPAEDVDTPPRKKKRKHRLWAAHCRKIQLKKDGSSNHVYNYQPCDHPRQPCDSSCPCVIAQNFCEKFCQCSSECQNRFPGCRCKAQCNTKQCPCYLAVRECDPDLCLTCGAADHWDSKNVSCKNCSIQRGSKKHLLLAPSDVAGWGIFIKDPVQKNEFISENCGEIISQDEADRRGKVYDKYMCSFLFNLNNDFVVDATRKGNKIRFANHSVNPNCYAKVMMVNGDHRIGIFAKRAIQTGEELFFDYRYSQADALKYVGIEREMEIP
Sequence of EZH2 Mutant Y641N (O75530 whole entry partner, looked up): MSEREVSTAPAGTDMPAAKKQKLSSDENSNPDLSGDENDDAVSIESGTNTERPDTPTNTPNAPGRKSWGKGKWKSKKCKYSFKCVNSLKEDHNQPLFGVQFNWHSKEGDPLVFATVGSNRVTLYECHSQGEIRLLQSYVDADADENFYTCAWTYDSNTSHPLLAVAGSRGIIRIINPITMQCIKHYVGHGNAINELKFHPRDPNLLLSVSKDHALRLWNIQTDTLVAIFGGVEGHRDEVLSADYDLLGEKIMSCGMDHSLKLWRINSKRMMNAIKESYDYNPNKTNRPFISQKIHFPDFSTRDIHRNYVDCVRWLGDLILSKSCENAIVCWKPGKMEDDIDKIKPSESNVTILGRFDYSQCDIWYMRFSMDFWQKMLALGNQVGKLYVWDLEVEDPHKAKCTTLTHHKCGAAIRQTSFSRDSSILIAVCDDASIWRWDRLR
Sequence of EZH2 Mutant Y641N (Q15022 whole entry partner, looked up): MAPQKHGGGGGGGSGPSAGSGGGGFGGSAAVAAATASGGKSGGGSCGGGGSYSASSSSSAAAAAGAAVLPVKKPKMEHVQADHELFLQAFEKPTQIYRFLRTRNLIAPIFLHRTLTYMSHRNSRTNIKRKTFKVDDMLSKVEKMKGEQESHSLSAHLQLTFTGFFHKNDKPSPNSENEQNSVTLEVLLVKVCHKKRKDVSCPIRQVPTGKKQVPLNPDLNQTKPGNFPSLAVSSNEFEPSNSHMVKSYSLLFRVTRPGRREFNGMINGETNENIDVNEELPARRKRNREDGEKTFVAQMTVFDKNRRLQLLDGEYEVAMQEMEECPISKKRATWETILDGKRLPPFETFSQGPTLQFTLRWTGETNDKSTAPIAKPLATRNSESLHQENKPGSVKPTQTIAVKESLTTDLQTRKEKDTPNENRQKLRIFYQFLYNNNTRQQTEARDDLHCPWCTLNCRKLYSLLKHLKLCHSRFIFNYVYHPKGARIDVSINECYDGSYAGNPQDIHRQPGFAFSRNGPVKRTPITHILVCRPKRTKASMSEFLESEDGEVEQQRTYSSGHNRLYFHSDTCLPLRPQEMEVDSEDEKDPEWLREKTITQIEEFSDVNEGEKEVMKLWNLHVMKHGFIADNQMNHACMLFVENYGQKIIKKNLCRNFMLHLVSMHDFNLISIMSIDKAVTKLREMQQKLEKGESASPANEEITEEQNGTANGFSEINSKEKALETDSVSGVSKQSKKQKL
Sequence of EZH2 Mutant Y641N (Q09028 whole entry partner, looked up): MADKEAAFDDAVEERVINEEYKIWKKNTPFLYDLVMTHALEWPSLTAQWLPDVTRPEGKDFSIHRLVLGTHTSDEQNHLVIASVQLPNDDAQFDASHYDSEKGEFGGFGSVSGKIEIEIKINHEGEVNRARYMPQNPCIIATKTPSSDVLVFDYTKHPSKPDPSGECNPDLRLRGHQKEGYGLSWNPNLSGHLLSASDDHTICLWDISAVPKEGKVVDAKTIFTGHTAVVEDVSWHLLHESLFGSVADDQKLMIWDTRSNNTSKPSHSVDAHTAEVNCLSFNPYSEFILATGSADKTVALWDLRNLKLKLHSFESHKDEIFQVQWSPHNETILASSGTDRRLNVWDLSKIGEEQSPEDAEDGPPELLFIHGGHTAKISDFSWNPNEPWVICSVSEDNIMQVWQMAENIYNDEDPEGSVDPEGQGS
Sequence of WT EZH2 (Q15910 whole entry, looked up): as the sequence (Q15910 whole entry Y641N, looked up) above, with N641Y counted along it
Sequence of WT EZH2 (O75530 whole entry partner, looked up): as the sequence (O75530 whole entry partner, looked up) above
Sequence of WT EZH2 (Q15022 whole entry partner, looked up): as the sequence (Q15022 whole entry partner, looked up) above
Sequence of WT EZH2 (Q09028 whole entry partner, looked up): as the sequence (Q09028 whole entry partner, looked up) above

On to `COC(C(C)=O)c1cc(Cl)c2c(c1Cl)C(=O)N(Cc1c(C)cc(C)[nH]c1=O)CC2` (racemic) [Example 49], for which the IC50 at EZH2 Mutant Y641N (setting [1]) turned out to be 0.996 µM. In addition, the Ki at WT EZH2 (setting [2]) was 0.215 µM. As for `Cc1cc(C)c(CN2CCc3c(Cl)cc(C(CO)N4CCCC4)c(Cl)c3C2=O)c(=O)[nH]1` (racemic) [Example 57], the concentration for half-maximal inhibition (IC50) at EZH2 Mutant Y641N (setting [1]) amounted to 1.35 µM. Besides, the Ki at WT EZH2 (setting [2]) is 0.406 µM. As for `Cc1cc(C)c(CN2CCc3c(Cl)cc(C(CO)N4CCC(F)(F)C4)c(Cl)c3C2=O)c(=O)[nH]1` (racemic) [Example 59], the IC50 on EZH2 Mutant Y641N (setting [1]) stood at 0.155 µM. Further, on WT EZH2 (setting [2]), the Ki was 0.025 µM. For `Cc1cc(C)c(CN2CCc3c(Cl)cc(C(CO)N4CCOCC4)c(Cl)c3C2=O)c(=O)[nH]1` (racemic) [Example 60], at EZH2 Mutant Y641N (setting [1]), the IC50 came to 0.18 µM. In addition, the Ki at WT EZH2 (setting [2]) was 0.031 µM.

Take `Cc1cc(C)c(CN2CCc3ccc([C@@H](CO)[C@@H]4CCOC4)c(Cl)c3C2=O)c(=O)[nH]1` (racemic) [Example 64]: the IC50 on EZH2 Mutant Y641N (setting [1]) was 0.043 µM. For the same molecule, at WT EZH2 (setting [2]), the Ki was 0.007 µM.

Regarding `Cc1cc(C)c(CN2CCc3ccc([C@H](CO)[C@@H]4CCOC4)c(Cl)c3C2=O)c(=O)[nH]1` (racemic) [Example 65], the IC50 at EZH2 Mutant Y641N (setting [1]) is 0.047 µM. For the same molecule, the Ki on WT EZH2 (setting [2]) amounted to 0.006 µM. On EZH2 Mutant Y641N (setting [3]), `[2H]C([2H])([2H])OC(c1cc(Cl)c2c(c1Cl)C(=O)N(Cc1c(C)cc(C)[nH]c1=O)CC2)C1CCN(C(=O)CO)CC1` (racemic) [Example 70] registered an IC50 of 0.006 µM. Take `Cc1cc(C)c(CN2CCc3c(Cl)cc(C(C)N4CCOCC4)c(Cl)c3C2=O)c(=O)[nH]1` (racemic) [Example 89, (±)-5,8-dichloro-2-[(4,6-dimethyl-2-oxo-1,2-dihydropyridin-3-yl)methyl]-7-[1-(morpholin-4-yl)ethyl]-3,4-dihydroisoquinolin-1(2H)-one]: on EZH2 Mutant Y641N (setting [1]), the IC50 is 0.088 µM. The Ki on WT EZH2 (setting [2]) worked out at 0.008 µM. Take `COC(c1cc(C)c2c(c1Cl)C(=O)N(Cc1c(C)cc(C)[nH]c1=O)CC2)C1CNC1` (racemic) [Example 178]: the IC50 on EZH2 Mutant Y641N (setting [1]) was found to be 0.02 µM. Moreover, the Ki at WT EZH2 (setting [2]) stood at 0.003 µM. Turning to `Cc1cc(C)c(CN2CCc3c(Cl)cc(C(C)N4CCN(C)CC4)c(Cl)c3C2=O)c(=O)[nH]1` (racemic) [Example 202], on EZH2 Mutant Y641N (setting [1]), the IC50 turned out to be 0.207 µM. Moreover, the Ki on WT EZH2 (setting [2]) was 0.016 µM. For `Cc1cc(C)c(CN2CCc3c(Cl)cc(C(C)N4CCNCC4)c(Cl)c3C2=O)c(=O)[nH]1` (racemic) [Example 205], the IC50 at EZH2 Mutant Y641N (setting [1]) came out at 0.008 µM. The Ki on WT EZH2 (setting [2]) worked out at 0.0007 µM. As for `Cc1cc(C)c(CN2CCc3c(Cl)cc(C(CO)N4CC[C@@H](F)C4)c(Cl)c3C2=O)c(=O)[nH]1` (single isomer, unassigned) [Example 6], at EZH2 Mutant Y641N (setting [1]), the IC50 was 0.136 µM. In addition, at WT EZH2 (setting [2]), the Ki turned out to be 0.019 µM. On to `Cc1cc(C)c(CN2CCc3c(Cl)cc(C(CO)N4CC[C@@H](F)C4)c(Cl)c3C2=O)c(=O)[nH]1` (single isomer, unassigned) [Example 7], for which the IC50 on EZH2 Mutant Y641N (setting [1]) was 1.62 µM. In addition, on WT EZH2 (setting [2]), the Ki was 0.171 µM.

As for `CCC(OC)c1cc(Cl)c2c(c1Cl)C(=O)N(Cc1c(C)cc(C)[nH]c1=O)CC2` (single isomer, unassigned) [Example 15, 5,8-dichloro-2-[(4,6-dimethyl-2-oxo-1,2-dihydropyridin-3-yl)methyl]-7-(1-methoxypropyl)-3,4-dihydroisoquinolin-1(2H)-one], 0.019 µM corresponded to half-maximal inhibition against EZH2 Mutant Y641N (setting [3]) (IC50). At WT EZH2 (setting [4]), this molecule gave a Ki of 0.003 µM. In turn, `CCC(OC)c1cc(Cl)c2c(c1Cl)C(=O)N(Cc1c(C)cc(C)[nH]c1=O)CC2` (single isomer, unassigned) [Example 16, 5,8-dichloro-2-[(4,6-dimethyl-2-oxo-1,2-dihydropyridin-3-yl)methyl]-7-(1-methoxypropyl)-3,4-dihydroisoquinolin-1(2H)-one] gave an IC50 at EZH2 Mutant Y641N (setting [3]) of 0.04 µM. On WT EZH2 (setting [4]), this molecule registered a Ki of 0.004 µM. Turning to `COC(c1cc(Cl)c2c(c1Cl)C(=O)N(Cc1c(C)cc(C)[nH]c1=O)CC2)C1CCOCC1` (single isomer, unassigned) [Example 50], at EZH2 Mutant Y641N (setting [1]), the IC50 came out at 0.129 µM. Moreover, the Ki on WT EZH2 (setting [2]) stood at 0.077 µM. With `COC(c1cc(Cl)c2c(c1Cl)C(=O)N(Cc1c(C)cc(C)[nH]c1=O)CC2)C1CCOCC1` (single isomer, unassigned) [Example 51], the half-maximal inhibitory concentration (IC50) on EZH2 Mutant Y641N (setting [1]) came out at 0.002 µM. Take `COC(c1cc(Cl)c2c(c1Cl)C(=O)N(Cc1c(C)cc(C)[nH]c1=O)CC2)C1(O)CCOCC1` (single isomer, unassigned) [Example 52]: the IC50 at EZH2 Mutant Y641N (setting [1]) is 1.04 µM. At WT EZH2 (setting [2]), the Ki is 0.298 µM. On to `COC(c1cc(Cl)c2c(c1Cl)C(=O)N(Cc1c(C)cc(C)[nH]c1=O)CC2)C1(O)CCOCC1` (single isomer, unassigned) [Example 53], for which, at EZH2 Mutant Y641N (setting [1]), the IC50 stood at 0.017 µM. Further, the Ki on WT EZH2 (setting [2]) came out at 0.001 µM. For `Cc1cc(C)c(CN2CCc3c(Cl)cc([C@@H](CC#N)[C@@H]4CCOC4)c(Cl)c3C2=O)c(=O)[nH]1` (single isomer, unassigned) [Example 54], the IC50 at EZH2 Mutant Y641N (setting [1]) came to 0.012 µM. Besides, the Ki at WT EZH2 (setting [2]) turned out to be 0.004 µM. On to `Cc1cc(OC(F)F)c(CN2CCc3c(Cl)cc(C(CO)C4CCOCC4)c(Cl)c3C2=O)c(=O)[nH]1` (single isomer, unassigned) [Example 56], for which the IC50 on EZH2 Mutant Y641N (setting [1]) turned out to be 0.004 µM. Take `COC(c1cc(Cl)c2c(c1Cl)C(=O)N(Cc1c(C)cc(C)[nH]c1=O)CC2)C1CCN(C(=O)CC#N)CC1` (single isomer, unassigned) [Example 61]: the IC50 on EZH2 Mutant Y641N (setting [1]) came to 0.127 µM. Moreover, the Ki on WT EZH2 (setting [2]) is 0.031 µM. On to `Cc1cc(C)c(CN2CCc3c(Cl)cc(C(CO)N4CC[C@H](F)C4)c(Cl)c3C2=O)c(=O)[nH]1` (single isomer, unassigned) [Example 62], for which the IC50 at EZH2 Mutant Y641N (setting [1]) was 0.262 µM. Further, the Ki at WT EZH2 (setting [2]) is 0.035 µM. As for `Cc1cc(C)c(CN2CCc3c(Cl)cc(C(CO)N4CC[C@H](F)C4)c(Cl)c3C2=O)c(=O)[nH]1` (single isomer, unassigned) [Example 63], the IC50 on EZH2 Mutant Y641N (setting [1]) is 4.1 µM. The Ki at WT EZH2 (setting [2]) turned out to be 0.528 µM. On to `Cc1cc(C)c(CN2CCc3c(Cl)cc(C(CO)N4CCC(F)(F)C4)c(Cl)c3C2=O)c(=O)[nH]1` (single isomer, unassigned) [Example 66], for which, on EZH2 Mutant Y641N (setting [1]), the IC50 is 0.081 µM. The Ki on WT EZH2 (setting [2]) was found to be 0.009 µM.

On to `Cc1cc(C)c(CN2CCc3c(Cl)cc(C(CO)N4CCC(F)(F)C4)c(Cl)c3C2=O)c(=O)[nH]1` (single isomer, unassigned) [Example 67], for which, on EZH2 Mutant Y641N (setting [1]), the IC50 was 19.5 µM. For the same molecule, the Ki at WT EZH2 (setting [2]) was 1.6 µM. Turning to `Cc1cc(C)c(CN2CCc3c(Cl)cc(C(CO)N4CCOCC4)c(Cl)c3C2=O)c(=O)[nH]1` (single isomer, unassigned) [Example 68], the IC50 on EZH2 Mutant Y641N (setting [1]) was found to be 0.074 µM. Besides, the Ki on WT EZH2 (setting [2]) was found to be 0.007 µM. For `Cc1cc(C)c(CN2CCc3c(Cl)cc(C(CO)N4CCOCC4)c(Cl)c3C2=O)c(=O)[nH]1` (single isomer, unassigned) [Example 69], the IC50 at EZH2 Mutant Y641N (setting [1]) came out at 4.31 µM. The Ki at WT EZH2 (setting [2]) was determined as 0.417 µM. `COC(c1cc(Cl)c2c(c1Cl)C(=O)N(Cc1c(C)cc(C)[nH]c1=O)CC2)C1CCN(C(=O)CC#N)CC1` (single isomer, unassigned) [Example 71]: on EZH2 Mutant Y641N (setting [1]), the IC50 is 0.003 µM. Regarding `COC(c1cc(Cl)c2c(c1Cl)C(=O)N(Cc1c(C)cc(C)[nH]c1=O)CC2)C1CCN(C=O)CC1` (single isomer, unassigned) [Example 72], on EZH2 Mutant Y641N (setting [1]), the IC50 is 0.128 µM. Moreover, at WT EZH2 (setting [2]), the Ki amounted to 0.041 µM. Regarding `COC(c1cc(Cl)c2c(c1Cl)C(=O)N(Cc1c(C)cc(C)[nH]c1=O)CC2)C1CCN(C=O)CC1` (single isomer, unassigned) [Example 73], the IC50 at EZH2 Mutant Y641N (setting [1]) amounted to 0.002 µM. Consider `Cc1cc(C)c(CN2CCc3c(Cl)cc([C@@H](CO)[C@@H]4CCOC4)c(Cl)c3C2=O)c(=O)[nH]1` [Example 4, 5,8-dichloro-2-[(4,6-dimethyl-2-oxo-1,2-dihydropyridin-3-yl)methyl]-7-{(1S)-2-hydroxy-1-[(3S)-tetrahydrofuran-3-yl]ethyl}-3,4-dihydroisoquinolin-1(2H)-one], for which the half-inhibitory concentration (IC50) on EZH2 Mutant Y641N (setting [1]) amounted to 1.95 µM.
